Like-named read-outs stand apart in the source and are kept apart here.

Series [1] has as its system Antroda xantha. The experiment in a line: malt agar plate growth inhibition, end point/MIC and Kull synergy. Type of series: cell-based. As for the experimental part: (§1) To this end an alcoholic aqueous solutions of decyl boratrane and didecyldimethyl ammonium chloride were prepared separately and in combination in a ratio of 3:1 Serial dilutions of the formulations of the respective fungicides and fungicide mixture were added to 3 replicate plates of malt agar under aseptic conditions. Three replicate control plates without fungicide were similarly prepared.
(§2) Onto each plate was placed 6 fungal inoculum squares measuring approximately 5×5 mm. […] The plates were then rated for growth inhibition and the results recorded.
(§3) The absence or presence of synergism may be calculated by the method of F. C. Kull et al., Applied Microbiology, Vol 9, (1961) p 538 et seq. The synergistic index (S.I.) is calculated according to the following formula.
(§4) In the present context the parameters in the formula have the following meaning:
(§5) Qa=The concentration of compound decyl isopropanolamine boratrane (compound A) in mixture which produces and end point. Qb=The concentration of compound didecyldimethyl ammonium chloride (compound B) in mixture which produces and end point. QA=The concentration of compound decyl isopropanolamine boratrane (compound A) alone which produces and end point. QB=The concentration of compound didecyldimethyl ammonium chloride (compound B) alone which produces and end point. QC=The concentration of the mixture of didecyldimethyl ammonium chloride and decyl isopropanolamine boratrane (compounds A+B) which together produces and end point.
(§6) If the synergistic index is above 1, this means that antagonism is present. If the synergistic index equals 1, this means that an additive effect of the two biocides exist. If the synergistic index is less than 1, this means that synergism of the two biocides exist.
(§7) To this end an alcoholic aqueous solution of decyl boratrane and didecyldimethyl ammonium chloride was formulated in a ratio of 3:1. In a separate formulation a micro-emulsion of triadimefon was prepared. Serial dilutions of the formulations of the respective fungicides were added to 3 replicate plates of malt agar under aseptic conditions and tested for synergism under the same conditions as example 7 at ratios of 10:1 and 20:1 boratrane didecyldimethyl ammonium chloride mixture to 1 of triadimefon.
(§8) The synergy experiment in Example 8 was repeated at two additional ratios of 5:1 and 50:1. The results are sumarised in tables 14 and 15.

Series [2] deals with Fomitopsis lilacino-gilva. Described as above. Type of series: cell-based. As for the experimental part:
as §1, §2, §3, §4, §5, §6, §7, §8

Series [3] has as its system Trametes versicolor. The series is described as above. Type of series: cell-based. As for the experimental part: as §1, §2, §3, §4, §5, §6, §7, §8
The subject of series [4] is Pycnoporus coccineus. The description is as above. Type of series: cell-based. As for the experimental part:
as §1, §2, §3, §4, §5, §6, §7, §8

For series [5], the system named is Tyromyces palustris. The description is as above. Type of series: cell-based. On the procedure: as §1, §2, §3, §4, §5, §6, §7, §8
The conditions of series [6]: cited from earlier work.
Series [7] has as its system Fomitopsis lilacino-gilva. The experiment in a line: decay of treated, leached radiata pine blocks (AWPA protocol). Type of series: cell-based. On the procedure:
(§9) A more rigorous examination of the potential synergism of was carried out on leached wood blocks. Radiata pine blocks were cut to size (20×20×20 mm) and labeled according to treatment level. The blocks were then vacuum impregnated at
(§10) −95 kpa with the various treatments as specified in table 16. The aqueous or alcoholic carrier solvents were then allowed to air dry for a period of 5 days. The blocks were then subjected to leaching and biological attack in accordance with the AWPA's “Proctocols for assessment of Wood Preservatives.” The fungal species used were Tyromyces palustris, Coniophora puteana and Fomitopsis lilacino-gilva.
(§11) inhibition of growth by fungicide B at retention q. E is the expected additive inhibition of the two fungicides. If a greater inhibition occurs with the combined treatment than the two fungicides acting alone synergism is defined to be present.

For series [8], the system named is Coniophora puteana. Described as above. Type of series: cell-based. On the procedure:
as §9, §10, §11

For series [9], the system named is Tyromyces palustris. Described as above. Type of series: cell-based. As for the experimental part: as §9, §10, §11
In series [10] the test system is G. abietinum. Conditions: Humphrey et al; cited from earlier work.
Series [11] relates to P. tephropora. Conditions: Humphrey et al; cited from earlier work.
Setting [12] is: Ex 7, Table 5 prints no unit (ppm in Tables 1-4).
Where [13] appears, read: Ex 8, A=DIPB DDAC 3:1, B=triadimefon.
[14] abbreviates: Ex 9 repeat, A=DIPB DDAC 3:1, B=triadimefon.

For `CCCCCCCCCCC1C[N+]23CC(C)O[B-]2(OC(C)C3)O1` (stereo not drawn) [DIPB, 3,7-dimethyl-10-decyl-2,8,9-trioxa-5-aza-1-boratricyclo-[3.3.3.0]-undecane], the MIC in series [1] (Ex 7) was 256 ppm; in series [2] (Ex 7), 2048 ppm; in [3] (Ex 7) it was 256 ppm; in [4] (setting [12]) it was 2048; in series [5] (Ex 7), 1024 ppm. Moreover, the “QA end point concentration, A alone” value in series [1] (Ex 7, A=DIPB, B=DDAC) is 256; in series [2] (Ex 7, A=DIPB, B=DDAC), 2048; in [3] (Ex 7, A=DIPB, B=DDAC), 2048; in [4] (Ex 7, A=DIPB, B=DDAC), 256; in series [5] (Ex 7, A=DIPB, B=DDAC), 1024. Besides, in series [6] (analysis of the lap joints each year), the “rate of boron leaching” value is “significantly lower than boric acid”. Moreover, the “efficacy compared to boric acid” value in series [6] (weather exposed lap joints) was “superior efficacy”. Also, the Mass loss % in [7] (retention 0.1% w b.a.e.) came out at 32.95%; in series [7] (retention 0.2% w b.a.e.), 34.58%; in series [7] (retention 0.4% w b.a.e) it was 10.09%; in [7] (retention 0.8% w b.a.e) it was 0.29%; in [8] (retention 0.1% w b.a.e.), 56.25%; in series [8] (retention 0.2% w b.a.e.), 47.62%. Besides, the Mass loss % was 27.93% in series [8] (retention 0.4% w b.a.e); 4.64% in series [8] (retention 0.8% w b.a.e); 22.55% in series [9] (retention 0.1% w b.a.e.); 26.55% in series [9] (retention 0.2% w b.a.e.); 21.33% in series [9] (retention 0.4% w b.a.e); 0.86% in series [9] (retention 0.8% w b.a.e).

As to “alkyldimethyl benzyl ammonium chloride [Benzalkonium Chloride 50%]”, the Mass loss % turned out to be 30.66% in series [7] (retention ADBAC 0.16% w); 29.44% in series [7] (retention ADBAC 0.33% w); 27.92% in series [7] (retention ADBAC 0.66% w); 4.27% in [7] (retention ADBAC 1.33% w); 60.59% in series [8] (retention ADBAC 0.16% w); 48.9% in [8] (retention ADBAC 0.33% w). Also, the Mass loss % in [8] (retention ADBAC 0.66% w) came to 39.16%; in series [8] (retention ADBAC 1.33% w) it was 17.72%; in [9] (retention ADBAC 0.16% w) it was 21.68%; in series [9] (retention ADBAC 0.33% w), 25.03%; in series [9] (retention ADBAC 0.66% w) it was 23.72%; in [9] (retention ADBAC 1.33% w), 12.61%.

For `CCCCCCCCCC[N+](C)(C)CCCCCCCCCC.[Cl-]` [DDAC, didecyldimethyl ammonium chloride], the MIC in [1] is 256 µg/mL; in series [2], 256 µg/mL; in series [3] (Trametes versicolor), above 1020 µg/mL; in series [4] (setting [12]) it was 2048; in series [5], 1020 µg/mL. The “QB end point concentration, B alone” value in series [1] (Ex 7, A=DIPB, B=DDAC) was 256; in series [2] (Ex 7, A=DIPB, B=DDAC) it was 256; in [3] (Ex 7, A=DIPB, B=DDAC), 2048; in series [4] (Ex 7, A=DIPB, B=DDAC) it was 2048; in series [5] (Ex 7, A=DIPB, B=DDAC) it was 1024.

As for `CCCC[N+](CCCC)(CCCC)CCCC.c1ccc2c(c1)CO[B-]1(OCc3ccccc3O1)O2`, the “inhibition of the fungi” value in series [10] and in [11] was “complete inhibition” each time.

On to `CC(C)(C)C(=O)C(Oc1ccc(Cl)cc1)n1cncn1` (stereo not drawn) [Triadimefon], for which the “QB end point concentration, B alone” value in series [1] (setting [13]) is reported as 4; in [1] (setting [14]), 4; in series [2] (setting [13]), 4; in series [2] (setting [14]), 8; in series [3] (setting [13]), 4; in series [3] (setting [14]), 4. For the same compound, the “QB end point concentration, B alone” value turned out to be 128 in series [4] (setting [13]), 0.5 in [4] (setting [14]), 32 in [5] (setting [13]) and 16 in series [5] (setting [14]). Besides, the MIC in series [1] (Ex 8, read-out: MIC) worked out at 4 µg/mL; in [2] (Ex 8, read-out: MIC), 4 µg/mL; in [3] (Trametes versicolor, Ex 8, read-out: MIC) it was 128 µg/mL; in series [4] (Trametes coccinea, Ex 8, read-out: MIC), 4 µg/mL; in [5] (Ex 8, read-out: MIC), 32 µg/mL.

Take `OB(O)O` [Boric acid]: the Mass loss % in [7] (retention Boric acid 0.4% w) came to 32.91%; in series [7] (retention Boric acid 0.8% w) it was 30.6%; in series [8] (retention Boric acid 0.4% w), 47.37%; in series [8] (retention Boric acid 0.8% w), 43.4%; in series [9] (retention Boric acid 0.4% w) it was 23.66%; in series [9] (retention Boric acid 0.8% w), 24.67%.
